In article PMC6080416, “Spectroscopic Studies as a Toolbox for Biophysical and Chemical Characterization of Lipid-Based Nanotherapeutics” (Frontiers in Chemistry, 2018):

assay: Fluorescence quenching of n-AS probes in MLVs of EPC (drug location); format: physicochemical; settings: MLVs of EPC labeled with n-AS probes
Description: Three independent experiments were carried out.
This type of fluorescence quenching can be described by the Stern-Volmer linear plots (Equation 5 and Figures 7A,B) where the fluorescence emission intensities of the labeled nanocarrier in the absence (I0) and in the presence (I) of the quencher (drugs) are plotted against the quencher concentration [Q] and it is possible to obtain linear relations in which the intercept is zero and the slope corresponds to Stern-Volmer constant, KSVapp (Lakowicz, [2014]):
The Stern-Volmer plots of the fluorescence quenching provoked by increasing concentrations of Indomethacin are not linear and present positive deviations (Figure 7C). Positive deviations from the Stern-Volmer equation are often observed when the extent of quenching is large and these deviations from linearity indicate that the quenching mechanism cannot be explained solely by a collisional mechanism (Lakowicz, [2014]). There is an apparent static quenching component caused by the close proximity of deactivating drug and fluorophore at excitation moment. The quenching is still collisional, but the existence of fluorophores and quenchers located very close to each other causes an immediate fluorescence deactivation and therefore the fluorophore and the drug appear to form non-fluorescent complexes (Lakowicz, [2014]). This type of fluorescence quenching is usually interpreted in terms of a “sphere of action” (Equation 7) within which the possibility of deactivation is equal to unity (Lakowicz, [2014]).
(7) I0/I=(1+KSVapp[Q])e^[Q]Vapp
By representing graphically I0/(Ie^[Q]Vapp) as a function of [Q], linear relations were obtained in which the slope corresponds to KSVapp (Figure 7D). Thus, Indomethacin quenching efficiency followed approximately the same order as that obtained for Acemetacin: 2-AS < 6-AS < 9-AS < 12-AS.

| Structure (SMILES) | Drug location within the lipid nanocarrier inferred from Kqapp |
| --- | --- |
| COc1ccc2c(c1)c(CC(=O)OCC(=O)O)c(C)n2C(=O)c1ccc(Cl)cc1 [Acemetacin] | can reach an inner location at the lipid nanocarrier |
| COc1ccc2c(c1)c(CC(=O)O)c(C)n2C(=O)c1ccc(Cl)cc1 [Indomethacin] | able to reach a more inner location within the lipid nanocarrier |
| Cc1ccc(C(=O)c2ccc(CC(=O)O)n2C)cc1 [Tolmetin] | preferential location of Tolmetin at the polar headgroup region of the lipid nanocarriers |
